Tests used:
CYP2D6 = CYP2D6 (Homo sapiens, UniProt P10635); experiment: CYP2D6 inhibition (fluorescent substrate AMMC); format: in vitro ADME; conditions: read-out: Cyp IC50 2D6
Procedure, shortened: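 10-pt 1:1 dilution series (from 100 mM DMSO stock) in NADPH regen cofactor mix, 5% MeCN; 10 min preincubation at 37 °C. Enzyme reaction 37 °C: 1A2 15 min, 2C9 45 min, 2C19/2D6 30 min. Fluorescence readout; IC50 fit.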

Flt-3 kinase = target: T1, Flt-3 kinase (Homo sapiens, UniProt P36888); experiment: Flt-3 kinase biochemical activity assay (AlphaScreen); conditions: 100 μM ATP; read-out: Biochemical Inhibition IC50 Flt3
T1 sequence (P36888 27-993): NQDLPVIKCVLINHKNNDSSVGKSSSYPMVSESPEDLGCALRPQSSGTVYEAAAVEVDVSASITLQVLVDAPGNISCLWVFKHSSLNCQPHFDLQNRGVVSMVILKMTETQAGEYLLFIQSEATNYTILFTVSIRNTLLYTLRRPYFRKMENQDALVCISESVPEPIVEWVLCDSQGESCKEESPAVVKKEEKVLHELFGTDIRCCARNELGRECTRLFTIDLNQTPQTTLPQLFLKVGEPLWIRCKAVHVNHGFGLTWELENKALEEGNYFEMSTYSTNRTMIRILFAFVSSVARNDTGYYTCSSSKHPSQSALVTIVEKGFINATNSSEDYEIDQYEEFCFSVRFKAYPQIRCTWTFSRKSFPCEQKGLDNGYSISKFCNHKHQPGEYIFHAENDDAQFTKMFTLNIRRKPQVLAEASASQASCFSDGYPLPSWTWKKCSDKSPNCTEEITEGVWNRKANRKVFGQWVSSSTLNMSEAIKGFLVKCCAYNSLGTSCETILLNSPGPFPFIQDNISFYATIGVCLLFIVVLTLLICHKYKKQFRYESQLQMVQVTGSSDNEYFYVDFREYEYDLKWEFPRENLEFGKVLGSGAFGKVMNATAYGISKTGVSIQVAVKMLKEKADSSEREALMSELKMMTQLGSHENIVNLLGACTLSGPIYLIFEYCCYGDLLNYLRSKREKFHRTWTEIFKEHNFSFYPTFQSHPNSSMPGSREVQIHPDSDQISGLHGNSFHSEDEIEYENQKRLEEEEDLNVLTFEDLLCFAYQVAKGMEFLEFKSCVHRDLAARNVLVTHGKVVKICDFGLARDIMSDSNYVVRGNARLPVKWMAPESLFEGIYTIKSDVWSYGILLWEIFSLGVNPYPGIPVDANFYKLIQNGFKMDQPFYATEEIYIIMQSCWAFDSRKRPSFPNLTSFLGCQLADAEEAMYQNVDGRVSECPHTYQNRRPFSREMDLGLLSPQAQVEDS
Method: In one assay the biochemical activity IC50 values are determined with respect to inhibition of Flt-3 kinase activity, where inhibition of phosphorylation of a peptide substrate is measured as a function of compound concentration. Compounds to be tested, dissolved in DMSO (1 μL), are added to a white 384-well plate (Costar #3705). Working stocks of Flt-3 kinase (Invitrogen), biotin-(E4Y)10 substrate (Upstate Biotech, Cat#12-440), and ATP (Sigma, Cat#A-3377) are prepared in 25 mM Hepes pH 7.5, 5 mM MgCl2, 5 mM MnCl2, 1 mM DTT, and 0.01% Tween-20. All components are added to the 384-well plate for a final concentration of 1 ng/well Flt-3, 30 nM biotin-(E4Y)10 and 100 μM ATP in a volume of 20 μL. Each sample is at 5% DMSO. The plate is then incubated for 1 hour at room temperature. Just before use, working stocks of donor and acceptor beads from the AlphaScreen PY20 Detection Kit (PerkinElmer, Cat#676601M) are prepared in 25 mM Hepes pH 7.5, pH 7.4, 100 mM EDTA. 0.3% BSA. To stop the reaction, the plate is uncovered in the dark and 5 μL of Donor Beads solution (Streptavidin beads) is added to each well. The plate is incubated at room temperature for 20 minutes. Five microliters of Acceptor Beads solution (PY20 coated beads) are then added to each well. The final concentration of each bead is 10 μg/mL. The plates are incubated at room temperature for 60 minutes. Fluorescence signal is recorded on the Envision reader. Phosphorylated substrate results in binding of the PY20 antibody and association of the donor and acceptor beads such that signal correlates with kinase activity. The signal vs. compound concentration is used to determine the IC50.

Chain of CYP2D6 (P10635 whole entry): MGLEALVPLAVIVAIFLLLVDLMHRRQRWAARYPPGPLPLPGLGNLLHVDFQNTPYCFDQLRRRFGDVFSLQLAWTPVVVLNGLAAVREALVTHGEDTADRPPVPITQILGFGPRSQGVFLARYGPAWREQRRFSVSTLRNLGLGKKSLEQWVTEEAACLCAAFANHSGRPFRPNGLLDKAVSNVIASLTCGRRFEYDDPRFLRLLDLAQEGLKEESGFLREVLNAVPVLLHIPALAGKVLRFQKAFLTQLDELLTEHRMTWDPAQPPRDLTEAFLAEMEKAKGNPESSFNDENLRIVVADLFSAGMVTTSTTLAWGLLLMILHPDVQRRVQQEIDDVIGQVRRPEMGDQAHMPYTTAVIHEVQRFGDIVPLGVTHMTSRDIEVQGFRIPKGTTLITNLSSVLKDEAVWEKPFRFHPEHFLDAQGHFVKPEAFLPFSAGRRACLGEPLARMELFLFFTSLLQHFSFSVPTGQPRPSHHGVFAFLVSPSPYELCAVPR

IC50 (CYP2D6)	IC50 (Flt-3 kinase)	SMILES
> 10 µM		Clc1cnc2[nH]cc(Cc3cnc(NC4CCCCC4)nc3)c2c1 [Compound P-3001, [5-(5-chloro-1H-pyrrolo[2,3-b]pyridin-3-ylmethyl)-pyrimidin-2-yl]-cyclohexyl-amine]
	< 0.1 µM	COc1ccccc1Nc1ncc(Cc2c[nH]c3ncc(Cl)cc23)cn1 [Compound P-3016, [5-(5-Chloro-1H-pyrrolo[2,3-b]pyridin-3-ylmethyl)-pyrimidin-2-yl]-(2-methoxy-phenyl)-amine]
	< 0.1 µM	Fc1cccc(Nc2ncc(Cc3c[nH]c4ncc(Cl)cc34)cn2)c1 [Compound P-3017, [5-(5-Chloro-1H-pyrrolo[2,3-b]pyridin-3-ylmethyl)-pyrimidin-2-yl]-(3-fluoro-phenyl)-amine]
	< 0.01 µM	COc1ccc(Nc2ncc(Cc3c[nH]c4ncc(C)cc34)cn2)cn1 [Compound P-3020, (6-Methoxy-pyridin-3-yl)-[5-(5-methyl-1H-pyrrolo[2,3-b]pyridin-3-ylmethyl)-pyrimidin-2-yl]-amine]
	< 0.01 µM	COc1ccc(Nc2ncc(Cc3c[nH]c4ncc(C)cc34)cn2)cc1 [Compound P-3021, (4-Methoxy-phenyl)-[5-(5-methyl-1H-pyrrolo[2,3-b]pyridin-3-ylmethyl)-pyrimidin-2-yl]-amine]
	< 0.1 µM	COc1cc(Nc2ncc(Cc3c[nH]c4ncc(C)cc34)cn2)ccc1F [Compound P-3022, (4-Fluoro-3-methoxy-phenyl)-[5-(5-methyl-1H-pyrrolo[2,3-b]pyridin-3-ylmethyl)-pyrimidin-2-yl]-amine]
	< 0.01 µM	CCCOc1ccc(Nc2ncc(Cc3c[nH]c4ncc(C)cc34)cn2)cc1 [Compound P-3024, [5-(5-Methyl-1H-pyrrolo[2,3-b]pyridin-3-ylmethyl)-pyrimidin-2-yl]-(4-propoxy-phenyl)-amine]
	< 0.01 µM	CCc1ccc(Nc2ncc(Cc3c[nH]c4ncc(C)cc34)cn2)cc1 [Compound P-3025, (4-Ethyl-phenyl)-[5-(5-methyl-1H-pyrrolo[2,3-b]pyridin-3-ylmethyl)-pyrimidin-2-yl]-amine]
	< 0.1 µM	CCOc1ccc(Nc2ncc(Cc3c[nH]c4ncc(C)cc34)cn2)cc1 [Compound P-3026, (4-Ethoxy-phenyl)-[5-(5-methyl-1H-pyrrolo[2,3-b]pyridin-3-ylmethyl)-pyrimidin-2-yl]-amine]
	< 0.01 µM	CCOc1ccc(Nc2ncc(Cc3c[nH]c4ncc(C)cc34)cn2)cn1 [Compound P-3027, (6-Ethoxy-pyridin-3-yl)-[5-(5-methyl-1H-pyrrolo[2,3-b]pyridin-3-ylmethyl)-pyrimidin-2-yl]-amine]
	< 0.1 µM	CCn1cc(Nc2ncc(Cc3c[nH]c4ncc(C)cc34)cn2)cn1 [Compound P-3036, (1-Ethyl-1H-pyrazol-4-yl)-[5-(5-methyl-1H-pyrrolo[2,3-b]pyridin-3-ylmethyl)-pyrimidin-2-yl]-amine]

More lines, now with the values behind:

SMILES	IC50 (CYP2D6)	IC50 (Flt-3 kinase)
Clc1cnc2[nH]cc(Cc3cnc(NC4CCCCCC4)nc3)c2c1 [Compound P-3006, [5-(5-Chloro-1H-pyrrolo[2,3-b]pyridin-3-ylmethyl)-pyrimidin-2-yl]-cycloheptyl-amine]	> 10 µM	
CCn1ccc(Nc2ncc(Cc3c[nH]c4ncc(C)cc34)cn2)n1 [Compound P-3035, (1-Ethyl-1H-pyrazol-3-yl)-[5-(5-methyl-1H-pyrrolo[2,3-b]pyridin-3-ylmethyl)-pyrimidin-2-yl]-amine]		< 0.1 µM
Cc1ccc(Nc2ccc(Cc3c[nH]c4ncc(Cl)cc34)c(F)n2)cn1 [Compound P-3042, [5-(5-Chloro-1H-pyrrolo[2,3-b]pyridin-3-ylmethyl)-6-fluoro-pyridin-2-yl]-(6-methyl-pyridin-3-yl)-amine]		< 1 µM
CCOc1ccc(Nc2ccc(C(=O)c3c[nH]c4ncc(C)cc34)c(F)n2)cn1 [Compound P-3045, [6-(6-ethoxy-pyridin-3-ylamino)-2-fluoro-pyridin-3-yl]-(5-methyl-1H-pyrrolo[2,3-b]pyridin-3-yl)-methanone]		< 0.1 µM
CCc1ccc(Nc2ccc(Cc3c[nH]c4ncc(C)cc34)c(F)n2)cn1 [Compound P-3048, (6-Ethyl-pyridin-3-yl)-[6-fluoro-5-(5-methyl-1H-pyrrolo[2,3-b]pyridin-3-ylmethyl)-pyridin-2-yl]-amine]	> 10 µM	
CCc1ccc(Nc2ccc(C(=O)c3c[nH]c4ncc(C)cc34)c(F)n2)cn1 [Compound P-3049, [6-(6-Ethyl-pyridin-3-ylamino)-2-fluoro-pyridin-3-yl]-(5-methyl-1H-pyrrolo[2,3-b]pyridin-3-yl)-methanone]	> 10 µM	
Cc1cnc2[nH]cc(Cc3ccc(Nc4ccc(C5CC5)nc4)nc3F)c2c1 [Compound P-3050, (6-Cyclopropyl-pyridin-3-yl)-[6-fluoro-5-(5-methyl-1H-pyrrolo[2,3-b]pyridin-3-ylmethyl)-pyridin-2-yl]-amine]	> 10 µM	
Cc1cnc2[nH]cc(C(=O)c3ccc(Nc4ccc(C5CC5)nc4)nc3F)c2c1 [Compound P-3051, [6-(6-Cyclopropyl-pyridin-3-ylamino)-2-fluoro-pyridin-3-yl]-(5-methyl-1H-pyrrolo[2,3-b]pyridin-3-yl)-methanone]	> 10 µM	
O=C(c1ccc(Nc2ccc(C3CC3)nc2)nc1F)c1c[nH]c2ncccc12 [Compound P-3052, [6-(6-Cyclopropyl-pyridin-3-ylamino)-2-fluoro-pyridin-3-yl]-(1H-pyrrolo[2,3-b]pyridin-3-yl)-methanone]	> 10 µM	
Fc1nc(Nc2ccc(C3CC3)nc2)ccc1Cc1c[nH]c2ncccc12 [Compound P-3053, (6-Cyclopropyl-pyridin-3-yl)-[6-fluoro-5-(1H-pyrrolo[2,3-b]pyridin-3-ylmethyl)-pyridin-2-yl]-amine]	> 10 µM	
COc1ccc(Nc2ccc(Cc3c[nH]c4ncnc(C)c34)c(F)n2)cn1 [Compound P-4002, [6-Fluoro-5-(4-methyl-7H-pyrrolo[2,3-d]pyrimidin-5-ylmethyl)-pyridin-2-yl]-(6-methoxy-pyridin-3-yl)-amine]	> 10 µM	
CCOc1ncnc2[nH]cc(Cc3ccc(Nc4ccc(Br)nc4)nc3F)c12 [Compound P-4020, (6-Bromo-pyridin-3-yl)-[5-(4-ethoxy-7H-pyrrolo[2,3-d]pyrimidin-5-ylmethyl)-6-fluoro-pyridin-2-yl]-amine]		< 0.1 µM
Fc1nc(NC2CCC(F)(F)CC2)ccc1Cc1c[nH]c2ncnc(NCC(F)(F)F)c12 [Compound P-4128, 5-[[6-[(4,4-difluorocyclohexyl)amino]-2-fluoro-3-pyridyl]methyl]-N-(2,2,2-trifluoroethyl)-7H-pyrrolo[2,3-d]pyrimidin-4-amine]	> 10 µM	
Fc1nc(NC2CCC(F)(F)CC2)ccc1Cc1c[nH]c2ncnc(NC3CC3)c12 [Compound P-4129, N-cyclopropyl-5-[[6-[(4,4-difluorocyclohexyl)amino]-2-fluoro-3-pyridyl]methyl]-7H-pyrrolo[2,3-d]pyrimidin-4-amine]	5 to 10 µM	
Fc1nc(Nc2ccc(C3CC3)nc2)ccc1Cc1c[nH]c2ncnc(NCC(F)(F)F)c12 [Compound P-4130, 5-[[6-[(6-cyclopropyl-3-pyridyl)amino]-2-fluoro-3-pyridyl]methyl]-N-(2,2,2-trifluoroethyl)-7H-pyrrolo[2,3-d]pyrimidin-4-amine]	> 10 µM	

Reference: patent US8901118B2, “Compounds and methods for kinase modulation, and indications therefor” (Plexxikon Inc., priority 2010, dated 2014)
